# Experimental data taken from ChEMBL document CHEMBL1201862, “PubChem BioAssay data set” (2004).
# Activity calls are given as the source filed them.
# Legend:
# [1] = target: Cytochrome P450 2C19 (Homo sapiens, UniProt P33261); test: Cytochrome panel assay with activity outcomes. Panel member name: p450-cyp2c19 Compounds with AC50 equal or less than 10 uM are considered active; format: functional
# [2] = target: T1, Cytochrome P450 1A2 (Homo sapiens, UniProt P05177)
# T1 sequence (P05177 whole entry): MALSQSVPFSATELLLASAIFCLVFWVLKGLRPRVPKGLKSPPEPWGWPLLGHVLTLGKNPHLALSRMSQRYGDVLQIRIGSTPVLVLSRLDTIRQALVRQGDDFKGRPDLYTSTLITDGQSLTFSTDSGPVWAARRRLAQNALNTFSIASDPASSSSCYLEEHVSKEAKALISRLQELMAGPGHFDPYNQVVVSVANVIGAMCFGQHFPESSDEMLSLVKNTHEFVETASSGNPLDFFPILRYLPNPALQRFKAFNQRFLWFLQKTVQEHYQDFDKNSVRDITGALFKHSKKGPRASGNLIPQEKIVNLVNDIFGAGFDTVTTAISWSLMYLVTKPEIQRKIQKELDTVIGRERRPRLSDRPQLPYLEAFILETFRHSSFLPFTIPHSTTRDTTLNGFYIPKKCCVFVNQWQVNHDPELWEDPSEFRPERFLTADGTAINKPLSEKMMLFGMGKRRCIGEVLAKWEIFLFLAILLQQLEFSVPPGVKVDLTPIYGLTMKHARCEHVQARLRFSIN
# [3] = target: Cytochrome P450 2C9 (Homo sapiens, UniProt P11712)
# [4] = target: T2, Corticotropin-releasing factor receptor 2/Corticotropin-releasing factor-binding protein (Homo sapiens, UniProt P24387+Q13324); test: Dose Response confirmation of uHTS hits for small molecule antagonists of the CRF-binding protein and CRF-R2 receptor complex.; format: functional; conditions: read-out: IC50_Mean
# T2 sequence (Q13324 whole entry): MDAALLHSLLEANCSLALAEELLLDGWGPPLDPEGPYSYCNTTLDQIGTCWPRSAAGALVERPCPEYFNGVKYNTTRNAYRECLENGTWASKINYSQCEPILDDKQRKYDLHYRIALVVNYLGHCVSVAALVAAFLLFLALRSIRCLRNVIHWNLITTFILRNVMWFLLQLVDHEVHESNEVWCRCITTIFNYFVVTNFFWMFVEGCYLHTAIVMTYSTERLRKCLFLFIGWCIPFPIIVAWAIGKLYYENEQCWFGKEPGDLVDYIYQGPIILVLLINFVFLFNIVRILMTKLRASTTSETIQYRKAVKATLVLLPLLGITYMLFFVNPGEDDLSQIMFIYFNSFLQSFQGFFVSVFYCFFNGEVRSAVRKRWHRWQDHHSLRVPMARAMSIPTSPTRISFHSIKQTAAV
# T2 sequence (P24387 whole entry): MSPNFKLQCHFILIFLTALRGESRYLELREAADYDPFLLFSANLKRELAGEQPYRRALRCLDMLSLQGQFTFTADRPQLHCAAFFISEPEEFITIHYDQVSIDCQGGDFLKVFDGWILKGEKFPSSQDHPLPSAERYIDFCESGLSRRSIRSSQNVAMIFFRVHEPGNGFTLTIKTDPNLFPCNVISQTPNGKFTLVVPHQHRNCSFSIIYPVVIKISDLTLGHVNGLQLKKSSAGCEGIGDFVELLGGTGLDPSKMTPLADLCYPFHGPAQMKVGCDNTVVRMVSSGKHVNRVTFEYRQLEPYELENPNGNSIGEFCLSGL
# [5] = target: T2, Corticotropin-releasing factor receptor 2/Corticotropin-releasing factor-binding protein; test: activators of CRF receptor 2 with binding protein – uHTS hits, confirmation (AID 602473); format: functional; conditions: read-out: EC50_Mean
# [6] = blockers of CRF-binding protein–CRF-R2 complex – cell-based, uHTS hits, 384-well, dose response (AID 651639); format: functional, Homo sapiens; conditions: read-out: IC50_Mean
# [7] = target: Glyceraldehyde-3-phosphate dehydrogenase (Homo sapiens, UniProt P04406)
# [8] = target: Cytochrome P450 2D6 (Homo sapiens, UniProt P10635);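 further: CYP2D6 member of a cytochrome P450 panel assay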
# [9] = general mammalian cell viability loss – inhibitor set, cherry-pick, set 2, cytotoxicity control for miR-122 modulator project, dose response (AID 720697); format: functional, cell-based
# [10] = Luminescence Cell-Based Dose Retest to Confirm Inhibitors of Cancer Stem Cells. [Related pubchem assays (depositor defined):AID2717, AID2721]; format: functional; conditions: Homo sapiens
# [11] = HEK-293T viability loss after treatment – luminescence, T-cell screen hits, cytotoxicity control for TCR NF-kB inhibitor project, dose response (AID 489026); format: functional, cell-based;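 further: cells exposed to compound about 14 hours before the viability readout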
# [12] = target: T3, Heat shock factor protein 1 (Mus musculus, UniProt P38532); test: enhancement of HSF1-driven luciferase signal – cell-based, NIH3T3, luminescence, dose retest, confirmation (AID 435004); format: functional;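 further: stress induced by proteasome inhibitor MG132 added 30 min after compound; luciferase reporter driven by HSF1 response element in NIH3T3 cells; actives raise luminescence as potentiators of the MG132 stress response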
# T3 sequence (P38532 whole entry): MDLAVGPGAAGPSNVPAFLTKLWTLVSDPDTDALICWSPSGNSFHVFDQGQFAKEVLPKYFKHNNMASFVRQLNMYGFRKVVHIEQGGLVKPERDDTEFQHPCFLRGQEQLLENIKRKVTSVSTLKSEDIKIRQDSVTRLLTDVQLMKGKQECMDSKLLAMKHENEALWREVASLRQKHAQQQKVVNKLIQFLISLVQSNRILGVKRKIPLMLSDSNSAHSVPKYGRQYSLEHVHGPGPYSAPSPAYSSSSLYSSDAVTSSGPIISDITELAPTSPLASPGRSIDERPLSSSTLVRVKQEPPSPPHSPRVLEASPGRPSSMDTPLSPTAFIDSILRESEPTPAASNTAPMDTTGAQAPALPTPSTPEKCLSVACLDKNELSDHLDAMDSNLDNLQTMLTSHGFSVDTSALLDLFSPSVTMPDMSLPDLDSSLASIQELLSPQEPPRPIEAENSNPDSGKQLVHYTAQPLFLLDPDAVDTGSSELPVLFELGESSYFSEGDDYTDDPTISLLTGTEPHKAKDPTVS
# [13] = reduction of Shn3 3'UTR-driven luciferase in osteoblasts – cell-based, Clone20 osteoblasts, firefly luciferase, cherry-picked, dose response (AID 624132); format: functional;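 further: firefly luciferase luminescence from reporter carrying the Shn3 3'UTR in osteoblasts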
# [14] = loss of viability in HepG2 cells – cell-based, CellTiter-Glo, cherry-picked, cytotoxicity control for Shn3 inhibitor project, dose response (AID 624134); format: functional
# [15] = non-specific 3'UTR reporter inhibition in Clone20-Shn3RL – cell-based, Renilla luciferase, cherry-picked, counter-screen for Shn3 inhibitor project, dose response (AID 624133); format: functional
# [16] = target: Glucose-6-phosphate 1-dehydrogenase (Homo sapiens, UniProt P11413); test: inhibition of Homo sapiens G6PD, dose series – biochemical, fluorescence, selectivity assay for P. falciparum G6PD inhibitor project, dose response (AID 504792); format: functional
# [17] = tested on: CHO; test: CHO cell viability loss, potency – luminescence, cytotoxicity control for TLR9-MyD88 binding inhibitor project, dose response (AID 588339); format: functional, cell-based, hamster; conditions: Cricetulus griseus;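 further: CHO cells stably coexpressing TLR9 and MyD88 fusions from primary screen; compound exposure lasted 48 hours before viability readout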
# [18] = target: Beta Lactamase (Pseudomonas aeruginosa, UniProt Q932Y6); test: BLA reporter interference, concentration series – BLA reporter cells, FRET fluorescence, artefact control for TLR9-MyD88 binding inhibitor project, dose response (AID 588341); format: cell-based;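 further: cell based assay in CHO-K1 cells stably expressing beta-lactamase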
# [19] = cells; format: functional, cell-based
# [20] = target: T4, Nuclear receptor subfamily 0 group B member 1 (Homo sapiens, UniProt P51843); format: functional, cell-based;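 further: HEK293T cells transfected with SF-1 and DAX-1 plus StAR promoter luciferase reporter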
# T4 sequence (P51843 whole entry): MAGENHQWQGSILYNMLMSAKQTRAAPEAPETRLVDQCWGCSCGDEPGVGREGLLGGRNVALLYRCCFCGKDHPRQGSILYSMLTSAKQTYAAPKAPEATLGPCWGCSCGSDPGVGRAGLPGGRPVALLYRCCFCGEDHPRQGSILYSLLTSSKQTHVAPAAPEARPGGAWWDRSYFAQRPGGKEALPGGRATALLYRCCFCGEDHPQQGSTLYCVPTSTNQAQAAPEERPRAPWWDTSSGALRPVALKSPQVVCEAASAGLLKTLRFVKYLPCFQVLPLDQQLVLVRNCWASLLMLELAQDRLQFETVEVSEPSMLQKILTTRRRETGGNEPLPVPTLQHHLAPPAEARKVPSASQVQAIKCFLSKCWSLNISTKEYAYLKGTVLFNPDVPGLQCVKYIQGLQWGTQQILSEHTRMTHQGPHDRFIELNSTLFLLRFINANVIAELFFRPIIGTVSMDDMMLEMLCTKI
# [21] = Trypanosoma cruzi growth suppression in host cells – NIH3T3 host cells, beta-gal luminescence, confirmation (AID 2044); format: functional, cell-based;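 further: intracellular parasites grown in NIH/3T3 mouse fibroblasts as host cells; luminescent beta-galactosidase reporter signal from transgenic T. cruzi replicating inside host cells; inhibitors lower the luminescence signal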
# [22] = NIH3T3 cell viability loss – ATP luminescence, mouse fibroblasts, counter-screen, dose response (AID 2010); format: functional, cell-based;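 further: cells exposed to compound for about 90 hours before reading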
# [23] = THP-1 cell cytotoxicity, dose response, cytotoxicity control for non-replicating M. tuberculosis project (AID 489025); format: functional
# [24] = cells; format: functional
# [25] = target: Cytochrome P450 3A4 (Homo sapiens, UniProt P08684);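 further: CYP3A4 tested as one member of a cytochrome P450 panel screen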
# Sequence of Cytochrome P450 3A4 (P08684 whole entry): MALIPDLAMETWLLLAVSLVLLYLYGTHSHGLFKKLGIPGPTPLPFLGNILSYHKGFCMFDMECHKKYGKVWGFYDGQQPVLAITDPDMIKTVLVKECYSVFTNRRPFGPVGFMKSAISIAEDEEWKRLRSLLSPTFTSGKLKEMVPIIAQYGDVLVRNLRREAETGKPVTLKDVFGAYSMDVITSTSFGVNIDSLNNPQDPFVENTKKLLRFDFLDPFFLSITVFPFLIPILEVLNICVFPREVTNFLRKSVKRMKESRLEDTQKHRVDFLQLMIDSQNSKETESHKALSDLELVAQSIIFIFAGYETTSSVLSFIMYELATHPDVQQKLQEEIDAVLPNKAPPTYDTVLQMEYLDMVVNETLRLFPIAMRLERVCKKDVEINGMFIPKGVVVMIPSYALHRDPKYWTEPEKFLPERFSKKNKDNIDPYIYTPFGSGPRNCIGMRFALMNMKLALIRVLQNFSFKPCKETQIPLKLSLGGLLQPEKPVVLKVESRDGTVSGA
# Sequence of Cytochrome P450 2C9 (P11712 whole entry): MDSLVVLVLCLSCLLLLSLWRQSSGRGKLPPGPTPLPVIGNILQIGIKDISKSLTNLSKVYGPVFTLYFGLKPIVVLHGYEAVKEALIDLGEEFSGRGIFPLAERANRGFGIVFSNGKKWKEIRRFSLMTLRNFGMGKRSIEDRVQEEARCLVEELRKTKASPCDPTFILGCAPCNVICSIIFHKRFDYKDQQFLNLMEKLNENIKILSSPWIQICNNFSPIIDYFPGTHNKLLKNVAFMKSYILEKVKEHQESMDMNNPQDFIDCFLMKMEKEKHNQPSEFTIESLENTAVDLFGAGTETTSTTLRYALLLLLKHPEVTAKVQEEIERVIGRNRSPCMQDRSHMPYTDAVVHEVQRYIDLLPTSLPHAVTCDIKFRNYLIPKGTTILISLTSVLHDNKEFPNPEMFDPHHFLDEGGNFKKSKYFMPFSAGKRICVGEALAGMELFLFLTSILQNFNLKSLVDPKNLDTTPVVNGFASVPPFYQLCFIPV
# Sequence of Glyceraldehyde-3-phosphate dehydrogenase (P04406 whole entry): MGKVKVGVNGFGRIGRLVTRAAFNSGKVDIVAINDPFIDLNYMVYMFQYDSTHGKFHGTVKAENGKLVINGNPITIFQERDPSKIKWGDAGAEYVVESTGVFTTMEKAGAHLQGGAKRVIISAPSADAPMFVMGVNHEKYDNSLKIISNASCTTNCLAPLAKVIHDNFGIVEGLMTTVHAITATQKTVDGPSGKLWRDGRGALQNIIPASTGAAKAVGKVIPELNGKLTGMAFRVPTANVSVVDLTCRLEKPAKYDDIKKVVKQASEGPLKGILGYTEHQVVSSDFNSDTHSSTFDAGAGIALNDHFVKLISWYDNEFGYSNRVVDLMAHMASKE
# Sequence of Cytochrome P450 2D6 (P10635 whole entry): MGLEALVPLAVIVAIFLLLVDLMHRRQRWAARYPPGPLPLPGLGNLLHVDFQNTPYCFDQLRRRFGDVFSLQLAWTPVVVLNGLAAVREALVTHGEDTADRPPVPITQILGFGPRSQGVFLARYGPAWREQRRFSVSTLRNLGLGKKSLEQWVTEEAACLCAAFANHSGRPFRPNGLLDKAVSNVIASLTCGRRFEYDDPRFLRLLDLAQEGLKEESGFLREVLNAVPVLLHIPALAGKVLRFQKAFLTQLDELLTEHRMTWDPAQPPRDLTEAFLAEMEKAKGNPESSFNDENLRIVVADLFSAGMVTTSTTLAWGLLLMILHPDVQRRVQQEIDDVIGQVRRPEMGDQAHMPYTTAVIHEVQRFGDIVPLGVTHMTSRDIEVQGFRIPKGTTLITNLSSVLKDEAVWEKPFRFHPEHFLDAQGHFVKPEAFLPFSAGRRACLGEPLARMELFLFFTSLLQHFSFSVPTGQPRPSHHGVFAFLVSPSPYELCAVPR
# Sequence of Glucose-6-phosphate 1-dehydrogenase (P11413 whole entry, the tested form may be a part): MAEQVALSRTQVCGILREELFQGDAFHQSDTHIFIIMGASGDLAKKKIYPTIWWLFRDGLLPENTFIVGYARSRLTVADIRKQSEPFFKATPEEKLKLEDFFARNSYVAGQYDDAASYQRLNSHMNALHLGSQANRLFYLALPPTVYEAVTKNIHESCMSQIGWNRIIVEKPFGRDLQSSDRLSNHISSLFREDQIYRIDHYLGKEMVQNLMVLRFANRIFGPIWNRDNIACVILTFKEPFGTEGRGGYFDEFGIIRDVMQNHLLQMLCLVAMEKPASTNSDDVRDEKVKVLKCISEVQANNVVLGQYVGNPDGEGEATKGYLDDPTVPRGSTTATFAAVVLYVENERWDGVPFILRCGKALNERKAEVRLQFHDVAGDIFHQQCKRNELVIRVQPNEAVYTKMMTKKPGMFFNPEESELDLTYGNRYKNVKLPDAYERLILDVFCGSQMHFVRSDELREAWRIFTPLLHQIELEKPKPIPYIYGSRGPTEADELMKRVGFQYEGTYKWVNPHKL
# Sequence of Cytochrome P450 2C19 (P33261 whole entry): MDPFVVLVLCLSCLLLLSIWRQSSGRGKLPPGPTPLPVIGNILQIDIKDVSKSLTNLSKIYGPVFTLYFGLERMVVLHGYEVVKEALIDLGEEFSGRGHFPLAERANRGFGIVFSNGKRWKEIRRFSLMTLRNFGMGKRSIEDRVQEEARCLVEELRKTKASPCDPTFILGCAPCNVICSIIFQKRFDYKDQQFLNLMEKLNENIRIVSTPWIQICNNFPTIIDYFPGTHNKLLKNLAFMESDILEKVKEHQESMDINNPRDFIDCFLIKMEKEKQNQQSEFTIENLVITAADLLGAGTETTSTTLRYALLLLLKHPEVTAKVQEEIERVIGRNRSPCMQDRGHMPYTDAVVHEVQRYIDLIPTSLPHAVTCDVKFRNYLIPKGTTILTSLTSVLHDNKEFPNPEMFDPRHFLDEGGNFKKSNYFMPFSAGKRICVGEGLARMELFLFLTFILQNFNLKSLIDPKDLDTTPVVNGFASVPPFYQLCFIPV
# Sequence of Beta Lactamase (Q932Y6 whole entry): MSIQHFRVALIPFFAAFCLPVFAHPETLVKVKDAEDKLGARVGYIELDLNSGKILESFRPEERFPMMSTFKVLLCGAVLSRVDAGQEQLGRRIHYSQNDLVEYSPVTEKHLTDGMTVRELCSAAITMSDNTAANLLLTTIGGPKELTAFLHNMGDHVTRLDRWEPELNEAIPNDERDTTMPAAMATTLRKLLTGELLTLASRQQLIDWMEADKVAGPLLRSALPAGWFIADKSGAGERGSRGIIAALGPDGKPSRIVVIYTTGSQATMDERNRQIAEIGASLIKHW
smiles,measurement,setting,value
O=C(c1sc2ccccc2c1Cl)N1CCN(c2ccc(F)cc2)CC1,AC50,[1],0.0891 µM (inconclusive)
same,AC50,[2],2.82 µM (inconclusive)
same,AC50,[3],inconclusive
COC(=O)c1cc(OC)c(OC)cc1NC(=O)c1ccco1,IC50,[4],38.9 µM (active)
same,EC50,[5],> 53 µM (inactive)
same,IC50,[6],> 20 µM (inactive)
COc1ccc(/C=C/C(=O)Nc2c(C)nn(C)c2C)cc1COc1ccc(Br)cc1,IC50,[4],16.1 µM (active)
same,EC50,[5],> 53 µM (inactive)
same,IC50,[6],> 20 µM (inactive)
O=C(O)CCCCC(=O)c1ccc(CC(=O)O)s1,IC50,[7],> 100 µM (not active)
Cc1cc(C)c(C)c(S(=O)(=O)Nc2ccccc2C(=O)O)c1C,IC50,[4],16.3 µM (active)
same,EC50,[5],> 53 µM (inactive)
same,IC50,[6],> 20 µM (inactive)
CCCCNC(=O)Cc1coc2ccc3ccccc3c12,AC50,[3],inconclusive
Cc1noc(C)c1-c1nccc(NC2CC2)n1,AC50,[8],31.6 µM (inconclusive)
same,AC50,[3],inconclusive
Cc1cc2n(n1)C(c1cn(-c3ccccc3)nc1C)Nc1c(C)cccc1-2 (stereo unspecified),AC50,[9],0.562 µM (active)
O=C1NC(=S)N/C1=C\c1ccc(-c2cc([N+](=O)[O-])ccc2Br)o1,IC50,[7],> 100 µM (not active)
NC(=O)CC(NC(=O)c1ccc(Br)cc1)c1ccc(N2CCCCCC2)c([N+](=O)[O-])c1 (stereo unspecified),AC50,[10],15.4 µM (active)
same,IC50,[11],> 80 µM (inactive)
same,EC50,[12],38.3 µM (active)
same,AC50,[13],7.66 µM (active)
same,AC50,[14],> 70 µM (inactive)
same,AC50,[15],26.6 µM (active)
O=C1C(Cl)=C(N2CCN(CCO)CC2)C(=O)N1c1cccc(C(F)(F)F)c1,IC50,[7],> 50 µM (inconclusive)
c1ccc2c(c1)OCCOCCOCCOCCOc1ccccc1OCCOCCOCCO2,IC50,[4],7.94 µM (active)
same,EC50,[5],15.4 µM (active)
same,IC50,[6],> 20 µM (inactive)
N#Cc1c(C#N)c(SSc2c(C#N)c(C#N)c(N)n2-c2ccccc2)n(-c2ccccc2)c1N,IC50,[16],> 80 µM (inactive)
O=C1C=CC(=O)N1c1ccc2c(c1)C(NC(=O)C(F)(F)F)c1ccccc1-2 (stereo unspecified),IC50,[16],> 80 µM (inactive)
same,IC50,[17],1.91 µM (active)
same,IC50,[18],14.5 µM (inactive)
O=C1C(=Cc2ccccc2Cl)CCc2ccccc21,IC50,[19],> 67.5 µM (inactive)
same,IC50,[20],> 67.5 µM (inactive)
Clc1ccc(Cl)c(Oc2ccc(Oc3nc(Cl)ccc3Cl)cc2)n1,IC50,[4],0.727 µM (active)
same,EC50,[5],> 53 µM (inactive)
same,IC50,[6],11.4 µM (active)
Cc1cc(C)n(CC(=O)N/N=C/c2ccc([N+](=O)[O-])s2)n1,EC50,[21],0.845 µM (active)
same,EC50,[22],> 60 µM (not active)
same,CC50,[23],> 40 µM (active)
same,IC50,[24],48.5 µM (active)
Cc1ccc(Cc2c(-c3ccc(Br)cc3)nc3cc(C)ccn23)cc1,IC50,[19],> 67.5 µM (inactive)
same,IC50,[20],> 67.5 µM (inactive)
C=C1[C@@H](C)C2[C@H](Cc3ccccc3)NC(=O)[C@]23[C@H](OC(C)=O)/C=C/[C@@](C)(O)C(=O)[C@@H](C)C/C=C/[C@H]3[C@@H]1O (stereo partly specified),IC50,[19],> 67.5 µM (inactive)
same,IC50,[20],14 µM (inactive)
CO[C@@H]1CN(C)C(=O)c2cc(NC(=O)NC(C)C)ccc2OC[C@H](C)N(Cc2cncnc2)C[C@H]1C,AC50,[9],0.472 µM (active)
C/C(=N/NC(=O)c1ccc2c(c1)OCO2)c1ccc(NC(=O)c2ccc(F)cc2)cc1,IC50,[19],> 67.5 µM (inactive)
same,IC50,[20],> 67.5 µM (inactive)
FC(F)(F)c1cccc(NC(=S)Nc2cccc(Cl)c2)c1,AC50,[8],28.2 µM (inconclusive)
same,AC50,[25],25.1 µM (inconclusive)
same,AC50,[3],inconclusive
